Reference: patent US9101136B2, “Synergistic herbicide/fungicide composition containing certain pyridine carboxylic acids and certain fungicides” (Dow AgroSciences LLC, priority 2010, dated 2015)
Read-outs that look alike come from different tables or passages of the source.

Tests used:
Format in all cases: in vivo
[1] = tested on: wild pansy (Viola tricolor L; VIOTR); test: Postemergence herbicidal activity of mixtures on wild pansy
Protocol: (§1) Seeds of the desired test plant species were planted in Sun Gro MetroMix 306 planting mixture, which typically has a pH of 6.0 to 6.8 and an organic matter content of about 30 percent, in plastic pots with a surface area of 103.2 square centimeters (cm^2). When required to ensure good germination and healthy plants, a fungicide treatment and/or other chemical or physical treatment was applied. The plants were grown for 7-36 days (d) in a greenhouse with an approximate 14-hour (h) photoperiod which was maintained at about 18° C. during the day and 17° C. during the night. Nutrients and water were added on a regular basis and supplemental lighting was provided with overhead metal halide 1000-Watt lamps as necessary. The plants were employed for testing when they reached the second or third true leaf stage.
(§2) Treatments consisted of a cereal fungicide compound (as listed in Tables 1 through 34) and the cereal herbicide, 4-amino-3-chloro-6-(4-chloro-2-fluoro-3-methoxyphenyl)pyridine-2-carboxylic acid, alone and in combination. Weighed amounts of acid, esters (methyl) or salts (triethylammonium, TEA) of 4-amino-3-chloro-6-(4-chloro-2-fluoro-3-methoxyphenyl)pyridine-2-carboxylic acid (Compound I) were placed in 25 milliliter (mL) glass vials and dissolved in a volume of 97:3 volume-to-volume (v/v) acetone/dimethyl sulfoxide (DMSO) to obtain 4.5 milligrams active ingredient per milliliter (mg ai/mL) concentrated solutions. […] The concentrated solutions of Compound I were diluted to 1.5 mg ai/mL with the addition of 2 volumes of an aqueous mixture containing acetone, water, isopropyl alcohol, DMSO, Agri-dex crop oil concentrate, and Triton® X-77 surfactant in a 64.7:26.0:6.7:2.0:0.7:0.01 v/v ratio. A dilution solution was prepared by mixing 1 volume of 97:3 v/v acetone/DMSO and 2 volumes of an aqueous mixture containing acetone, water, isopropyl alcohol, DMSO, Agri-dex crop oil concentrate, and Triton® X-77 surfactant in a 64.7:26.0:6.7:2.0:0.7:0.01 v/v ratio. Compound requirements are based upon a 12 mL application volume at a rate of 187 liters per hectare (L/ha). The concentrated solutions of the cereal fungicides were prepared following the same procedure. Weighed amounts of fungicide were placed in 25 mL glass vials and dissolved in a volume of 97:3 v/v acetone/DMSO to obtain concentrated fungicide solutions. The concentrated solutions of the safener were prepared following the same procedure. Weighed amounts of safener were placed in 25 mL glass vials and dissolved in a volume of 97:3 v/v acetone/DMSO to obtain concentrated safener solutions.
(§3) Spray solutions of the cereal herbicide and the fungicidal compound mixtures were prepared by adding the concentrated solutions to the appropriate amount of dilution solution to form 12 mL spray solution with active ingredients in combinations. Spray solutions of the cereal herbicide, herbicide safener and the fungicidal compound mixtures were prepared by adding the concentrated solutions to the appropriate amount of dilution solution to form 12 mL spray solution with active ingredients in combinations.
(§4) Formulated compounds were applied to the plant material with an overhead Mandel track sprayer equipped with 8002E nozzles calibrated to deliver 187 L/ha over an application area of 0.503 square meters (m^2) at a spray height of 18 inches […] above average plant canopy. Control plants were sprayed in the same manner with the solvent blank.
(§5) The treated plants and control plants were placed in a greenhouse as described above and watered by sub-irrigation to prevent wash-off of the test compounds. After 20-22 d, the condition of the test plants as compared with that of the control plants was determined visually and scored on a scale of 0 to 100 percent where 0 corresponds to no injury and 100 corresponds to complete kill. […]

[2] = tested on: Russian thistle (Salsola iberica L; SASKR); test: Postemergence herbicidal activity of mixtures on Russian thistle; settings: for SASKR Ob (observed control): alone
Protocol: as §1, §2, §3, §4, §5

[3] = tested on: bird's-eye speedwell (Veronica persica L; VERPE); test: Postemergence herbicidal activity of mixtures on bird's-eye speedwell
Protocol: as §1, §2, §3, §4, §5

[4] = tested on: scented mayweed (Matricaria chamomila L; MATCH); test: Postemergence herbicidal activity of mixtures on scented mayweed; set-up: pest or weed control: dose or concentration left out as unconfirmed; settings: for MATCH Ob (observed control): alone
Protocol: as §1, §2, §3, §4, §5

[5] = tested on: kochia (Kochia scoparia L; KCHSC); test: Postemergence herbicidal activity of mixtures on kochia; set-up: pest or weed control: dose or concentration left out as unconfirmed; KCHSC Ob: unit: %; settings: for KCHSC Ob (observed control): alone
Protocol: as §1, §2, §3, §4, §5

[6] = Matricaria, post-emergence, read-out: MATCH Ob
[7] = Bassia scoparia, post-emergence, read-out: KCHSC Ob
[8] = Viola tricolor, post-emergence, fungicide 37.5 g/ha alone, read-out: VIOTR Ob

CCCN(CCOc1c(Cl)cc(Cl)cc1Cl)C(=O)n1ccnc1 [Prochloraz, N-propyl-N-[2-(2,4,6-trichlorophenoxy)ethyl]-1H-imidazole-1-carboxamide]
0%: pest or weed control at 101.25 g/ha ([1]; Viola tricolor, post-emergence, read-out: VIOTR Ob) | pest or weed control at 101.25 g/ha ([2]; Salsola tragus, post-emergence, read-out: SASKR Ob) | pest or weed control at 101.25 g/ha ([3]; Veronica persica, post-emergence, read-out: VERPE Ob) | pest or weed control at 101.25 g/ha [4, 6] | pest or weed control at 101.25 g/ha [5, 7]

COC(=O)Nc1nc2ccccc2[nH]1 [Carbendazim, methyl 1H-benzimidazol-2-ylcarbamate]
0%: pest or weed control at 62.5 g/ha ([1]; Viola tricolor, post-emergence, fungicide 62.5 g/ha alone, read-out: VIOTR Ob) | pest or weed control at 62.5 g/ha ([5]; Bassia scoparia, post-emergence, fungicide 62.5 g/ha alone, read-out: KCHSC Ob)

Fc1ccc(Oc2ccnc3cc(Cl)cc(Cl)c23)cc1 [Quinoxyfen, 5,7-dichloro-4-(4-fluorophenoxy)quinoline]
0%: pest or weed control at 37.5 g/ha ([1]; Viola tricolor, post-emergence, alone, 37.5 g/ha, read-out: VIOTR Ob (observed control)) | pest or weed control at 37.5 g/ha [1, 8] | SASKR Ob (observed control) ([2]; 37.5 g/ha) | VERPE Ob (observed control) ([3]; alone, 37.5 g/ha) | MATCH Ob (observed control) ([4]; 37.5 g/ha) | pest or weed control at 37.5 g/ha ([5]; Bassia scoparia, post-emergence, fungicide 37.5 g/ha alone, read-out: KCHSC Ob) | KCHSC Ob (observed control) ([5]; 37.5 g/ha)

CCCC1COC(Cn2cncn2)(c2ccc(Cl)cc2Cl)O1 (centres unmarked) [Propiconazole, 1-[[2-(2,4-dichlorophenyl)-4-propyl-1,3-dioxolan-2-yl]methyl]-1H-1,2,4-triazole]
0%: pest or weed control at 31.25 g/ha ([1]; Viola tricolor, post-emergence, fungicide 31.25 g/ha alone, read-out: VIOTR Ob) | pest or weed control at 31.25 g/ha ([2]; Salsola tragus, post-emergence, fungicide 31.25 g/ha alone, read-out: SASKR Ob) | pest or weed control at 31.25 g/ha ([3]; Veronica persica, post-emergence, fungicide 31.25 g/ha alone, read-out: VERPE Ob) | pest or weed control at 31.25 g/ha ([4]; Matricaria, post-emergence, fungicide 31.25 g/ha alone, read-out: MATCH Ob) | pest or weed control at 31.25 g/ha ([5]; Bassia scoparia, post-emergence, fungicide 31.25 g/ha alone, read-out: KCHSC Ob)

CCCN(CC)CC1COC2(CCC(C(C)(C)C)CC2)O1 (centres unmarked) [Spiroxamine, 8-(1,1-dimethylethyl)-N-ethyl-N-propyl-1,4-dioxaspiro[4.5]decane-2-methanamine]
0%: pest or weed control at 180 g/ha ([1]; Viola tricolor, post-emergence, alone, 180 g/ha, read-out: VIOTR Ob (observed control)) | MATCH Ob (observed control) ([4]; 180 g/ha) | KCHSC Ob (observed control) ([5]; 180 g/ha)

[[2-[(dithiocarboxy)amino]ethyl]carbamo-dithioato(2^−)-κS,κS′]manganese mixture with [[2-[(dithiocarboxy)amino]ethyl]carbamo-dithioato(2^−)-κS,κS′]zinc [Mancozeb]
0%: VIOTR Ob ([1]; fungicide 281.25 g/ha alone) | SASKR Ob ([2]; fungicide 281.25 g/ha alone) | VERPE Ob ([3]; fungicide 281.25 g/ha alone) | MATCH Ob ([4]; fungicide 281.25 g/ha alone) | KCHSC Ob ([5]; fungicide 281.25 g/ha alone)

CC(C1CC1)C(O)(Cn1cncn1)c1ccc(Cl)cc1 (stereo not drawn) [Cyproconazole, α-(4-chlorophenyl)-α-(1-cyclopropylethyl)-1H-1,2,4-triazole-1-ethanol]
0%: pest or weed control at 19.8 g/ha ([1]; Viola tricolor, post-emergence, fungicide 19.8 g/ha alone, read-out: VIOTR Ob) | pest or weed control at 19.8 g/ha ([2]; Salsola tragus, post-emergence, fungicide 19.8 g/ha alone, read-out: SASKR Ob) | pest or weed control at 19.8 g/ha ([3]; Veronica persica, post-emergence, fungicide 19.8 g/ha alone, read-out: VERPE Ob) | pest or weed control at 19.8 g/ha ([4]; Matricaria, post-emergence, fungicide 19.8 g/ha alone, read-out: MATCH Ob) | pest or weed control at 19.8 g/ha ([5]; Bassia scoparia, post-emergence, fungicide 19.8 g/ha alone, read-out: KCHSC Ob)

OC(Cc1ccccc1Cl)(Cn1[nH]cnc1=S)C1(Cl)CC1 (centres unmarked) [Prothioconazole, 2-[2-(1-chlorocyclopropyl)-3-(2-chlorophenyl)-2-hydroxypropyl]-1,2-dihydro-3H-1,2,4-triazole-3-thione]
0%: pest or weed control at 50 g/ha ([2]; Salsola tragus, post-emergence, fungicide 50 g/ha alone, read-out: SASKR Ob) | pest or weed control at 50 g/ha ([3]; Veronica persica, post-emergence, fungicide 50 g/ha alone, read-out: VERPE Ob) | pest or weed control at 50 g/ha ([4]; Matricaria, post-emergence, fungicide 50 g/ha alone, read-out: MATCH Ob) | pest or weed control at 50 g/ha ([5]; Bassia scoparia, post-emergence, fungicide 50 g/ha alone, read-out: KCHSC Ob)

OC(Cn1cncn1)(c1ccc(F)cc1)c1ccccc1F (stereo not drawn) [Flutriafol, α-(2-fluorophenyl)-α-(4-fluorophenyl)-1H-1,2,4-triazole-1-ethanol]
0%: pest or weed control at 21.25 g/ha ([1]; Viola tricolor, post-emergence, fungicide 21.25 g/ha alone, read-out: VIOTR Ob) | pest or weed control at 21.25 g/ha ([2]; Salsola tragus, post-emergence, fungicide 21.25 g/ha alone, read-out: SASKR Ob) | pest or weed control at 21.25 g/ha ([4]; Matricaria, post-emergence, fungicide 21.25 g/ha alone, read-out: MATCH Ob) | pest or weed control at 21.25 g/ha ([5]; Bassia scoparia, post-emergence, fungicide 21.25 g/ha alone, read-out: KCHSC Ob)

Cc1cc(C2CC2)nc(Nc2ccccc2)n1 [Cyprodinil, 4-cyclopropyl-6-methyl-N-phenyl-2-pyrimidinamine]
0%: pest or weed control at 187.5 g/ha ([2]; Salsola tragus, post-emergence, fungicide 187.5 g/ha alone, read-out: SASKR Ob)

COc1cc(C)c(C(=O)c2c(OC)ccc(Br)c2C)c(OC)c1OC [Metrafenone, (3-bromo-6-methoxy-2-methylphenyl)(2,3,4-trimethoxy-6-methylphenyl)methanone]
0%: pest or weed control at 37.5 g/ha [1, 8] | pest or weed control at 37.5 g/ha ([2]; Salsola tragus, post-emergence, fungicide 37.5 g/ha alone, read-out: SASKR Ob) | pest or weed control at 37.5 g/ha ([4]; Matricaria, post-emergence, fungicide 37.5 g/ha alone, read-out: MATCH Ob)

CO/N=C(/C(=O)OC)c1ccccc1COc1ccccc1C [Kresoxim-methyl, methyl (αE)-α-(methoxyimino)-2-[(2-methylphenoxy)methyl]benzeneacetate]
0%: pest or weed control at 25 g/ha ([4]; Matricaria, post-emergence, fungicide 25 g/ha alone, read-out: MATCH Ob)

CCCOc1nc2ccc(I)cc2c(=O)n1CCC [Proquinazid, 6-iodo-2-propoxy-3-propyl-4(3H)-quinazolinone]
0%: pest or weed control at 12.5 g/ha ([1]; Viola tricolor, post-emergence, fungicide 12.5 g/ha alone, read-out: VIOTR Ob) | pest or weed control at 12.5 g/ha ([4]; Matricaria, post-emergence, fungicide 12.5 g/ha alone, read-out: MATCH Ob)

CC1(C)CCC(Cc2ccc(Cl)cc2)C1(O)Cn1cncn1 (centres unmarked) [Metconazole, 5-[(4-chlorophenyl)methyl]-2,2-dimethyl-1-(1H-1,2,4-triazol-1-ylmethyl)cyclopentanol]
0%: pest or weed control [4, 6] | pest or weed control [5, 7]

COc1ccnc(C(=O)N[C@H]2COC(=O)[C@H](Cc3ccccc3)[C@@H](OC(=O)C(C)C)[C@H](C)OC2=O)c1OCOC(=O)C(C)C [compound II, isobutyric acid (3S,6S,7R,8R)-8-benzyl-3-[(3-isobutyryloxymethoxy-4-methoxypyridine-2-carbonyl)-amino]-6-methyl-4,9-dioxo-[1,5]dioxonan-7-yl ester]
0%: pest or weed control at 40.5 g/ha ([1]; Viola tricolor, post-emergence, read-out: VIOTR Ob (observed control)) | SASKR Ob (observed control) ([2]; 40.5 g/ha) | MATCH Ob (observed control) ([4]; 40.5 g/ha) | KCHSC Ob (observed control) ([5]; 40.5 g/ha)
